# Assay results: patent US20230114728A1 (Venatorx Pharmaceuticals, Inc., priority 2019, published 2023)
# Assays:
# Assay in all cases: Broth microdilution MIC in iron-depleted CAMHB (IDM)
# Type in all cases: cell-based
# [1] = tested on: A. baumannii CDC-0045 producing TEM-1D, OXA-23, and OXA-69; conditions: Acinetobacter baumannii, read-out: Minimum Inhibitory Concentration, CDC-0045
# [2] = tested on: P. aeruginosa CDC-0054 producing VIM-4, OXA-50, and PAO; conditions: Pseudomonas aeruginosa, read-out: Minimum Inhibitory Concentration, P. aeruginosa CDC-0054
# Procedure: (§1) Example IV: In Vitro Antibacterial Assays in Iron-Depleted Cation-Adjusted Mueller-Hinton Broth
# (§2) To determine the ability of test compounds to inhibit the growth bacterial strains under conditions of iron-depletion, classic cell based broth microdilution minimum inhibitory concentration (MIC) assays were employed. MIC assays are performed according to CLSI methods except where otherwise noted (CLSI, 2018 and CLSI, 2019). The reference type strain E. coli ATCC 25922 was used to determine the ability of the PBP inhibitors to inhibit the growth of Enterobacteriaceae. Wild-type P. aeruginosa ATCC 27853, A. baumannii ATCC 17978 and A. baumannii ATCC 19606, along with the hyper-permeable P. aeruginosa ATCC 35151, an engineered efflux pump-compromised strain of P. aeruginosa (ΔmexAB-oprM), and an engineered efflux-pump compromised strain of A. baumannii IL123 (ABΔ3-ARAEcPore) were used to determine the ability of PBP inhibitors to penetrate the outer membrane of P. aeruginosa and A. baumannii and assess antibacterial activity against these important gram-negative organisms.
# (§3) Briefly, cryo-preserved bacterial cultures of challenge strains are streaked for isolation on appropriate agar medium, in this case cation-adjusted Mueller Hinton agar. Following incubation to allow growth of the colonies, plates are sealed with parafilm and stored refrigerated for up to two weeks. For preparation of assay inoculum and to ensure low variability, at least 5 colonies are picked from the agar plates with an inoculating loop and aseptically transferred to a culture tube containing 3 mL of iron-depleted cation-adjusted Mueller Hinton broth (IDM)—see below for IDM preparation. The broth culture is grown for 3-5 hours at 37° C. with shaking at 200 rpm. Meanwhile, 2-fold serial dilutions of test compounds are conducted in a 96-well plate with a final volume of 75 μL per well at 2-fold the final desired concentration. After the dilution plates are set up the growing cultures are then diluted in a cuvette containing IDM and the optical density is measured at 600 nm. The inoculum is diluted such that 75 μL of this culture in IDM results in a starting bacterial concentration of 2-8×10^5 CFU/mL when added to the dilution plates. The plates are incubated for 16-20 hours for Enterobacteriaceae and Pseudomonas and 20-24 hours for Acinetobacter at 37° C. The MIC values are read visually as the lowest concentration well with no bacterial growth.
# (§4) Method for Iron-Depleted Cation-Adjusted Mueller Hinton Broth (IDM) Preparation:
# (§5) • Prepare cation-adjusted Mueller Hinton broth as per the manufacturer's recommendations and autoclave. • Add 100 g/L Chelex 100 resin, cover with foil and incubate with stirring for 2 hours • Remove Chelex 100 resin by filtration with 0.45 μm filter flask • Add the following back to the medium: • CaCl2 dihydrate: 82.5 mg/L • MgCl2 hexahydrate: 94.1 mg/L • ZnSO4: 10 μM • Adjust pH of medium to 7.3 with 5 N HCl • Sterilize using a 0.22 µm filter flask
# [3] = tested on: A. baumannii ATCC 17978; conditions: Acinetobacter baumannii, ATCC17978, read-out: Minimum Inhibitory Concentration, ATCC 17978
# Procedure: as §1, §2, §3, §4, §5
# [4] = tested on: A. baumannii CDC-0083 producing NDM-1, PER-7, OXA-23, and OXA-69; conditions: Acinetobacter baumannii, read-out: Minimum Inhibitory Concentration, CDC-0083
# Procedure: as §1, §2, §3, §4, §5
# [5] = tested on: A. baumannii ATCC 19606; conditions: Acinetobacter baumannii, ATCC19606, read-out: Minimum Inhibitory Concentration, ATCC 19606
# Procedure: as §1, §2, §3, §4, §5
# [6] = tested on: P. aeruginosa ATCC 27853; conditions: Pseudomonas aeruginosa, ATCC27853, read-out: Minimum Inhibitory Concentration, P. aeruginosa ATCC 27853
# Procedure: as §1, §2, §3, §4, §5
# [7] = tested on: A. baumannii CDC-0036 OXA-65, and OXA-24; conditions: Acinetobacter baumannii, read-out: Minimum Inhibitory Concentration, CDC-0036
# Procedure: as §1, §2, §3, §4, §5
# [8] = tested on: P. aeruginosa CDC-0090 producing KPC-5, OXA-50, and PAO; conditions: Pseudomonas aeruginosa, read-out: Minimum Inhibitory Concentration, P. aeruginosa CDC-0090
# Procedure: as §1, §2, §3, §4, §5
# [9] = tested on: P. aeruginosa CDC-0095 producing OXA-50, and PAO; conditions: Pseudomonas aeruginosa, read-out: Minimum Inhibitory Concentration, P. aeruginosa CDC-0095
# Procedure: as §1, §2, §3, §4, §5
# [10] = tested on: P. aeruginosa ATCC 35151; conditions: Pseudomonas aeruginosa, ATCC35151; iron-depleted MHB (IDM); hyper-permeable strain; read-out: Minimum Inhibitory Concentration, P. aeruginosa ATCC 35151
# Procedure: as §1, §2, §3, §4, §5
# [11] = tested on: A. baumannii CDC-0033 producing NDM-1, and OXA-94; conditions: Acinetobacter baumannii, read-out: Minimum Inhibitory Concentration, CDC-0033
# Procedure: as §1, §2, §3, §4, §5
# [12] = tested on: P. aeruginosa (ΔmexAB-oprM); conditions: Pseudomonas aeruginosa, read-out: Minimum Inhibitory Concentration, P. aeruginosa ΔmexAB-OprM
# Procedure: as §1, §2, §3, §4, §5
# [13] = tested on: P. aeruginosa CDC-0110; conditions: Pseudomonas aeruginosa, CDC0110, read-out: Minimum Inhibitory Concentration, P. aeruginosa CDC-0110
# Procedure: as §2, §3, §4, §5
SMILES,MIC [1] [µg/mL],MIC [2] [µg/mL],MIC [3] [µg/mL],MIC [4] [µg/mL],MIC [5] [µg/mL],MIC [6] [µg/mL],MIC [7] [µg/mL],MIC [8] [µg/mL],MIC [9] [µg/mL],MIC [10] [µg/mL],MIC [11] [µg/mL],MIC [12] [µg/mL],MIC [13] [µg/mL]
"CCN1CCN(C(=O)NC(C(=O)N[C@H]2Cc3cccc(C(=O)O)c3OB2O)c2ccc(O)c(NC(=O)c3ccc(O)c(O)c3Cl)c2)C(=O)C1=O (stereo partly drawn) [Example 74, (3R)-3-(2-(3-(2-chloro-3,4-dihydroxybenzamido)-4-hydroxyphenyl)-2-(4-ethyl-2,3-dioxopiperazine-1-carboxamido)acetamido)-2-hydroxy-3,4-dihydro-2H-benzo[e][1,2]oxaborinine-8-carboxylic acid]",32 to 64,0.5 to 1,32 to 64,32 to 64,32 to 64,8 to 16,32 to 64,32 to 64,0.5 to 1,0.25,32 to 64,0.5 to 1,2 to 4
"O=C(O)c1ccc(C(NC(=O)c2c(F)cc(O)c(O)c2Cl)C(=O)N[C@H]2Cc3ccc(F)c(C(=O)O)c3OB2O)cc1F (stereo partly drawn) [Example 71, (3R)-3-(2-(4-carboxy-3-fluorophenyl)-2-(2-chloro-6-fluoro-3,4-dihydroxybenzamido)acetamido)-7-fluoro-2-hydroxy-3,4-dihydro-2H-benzo[e][1,2]oxaborinine-8-carboxylic acid]",32 to 64,0.5 to 1,32 to 64,32 to 64,32 to 64,0.5 to 1,32 to 64,2 to 4,0.5 to 1,0.25,32 to 64,0.25,0.25
"CC(C)(C)[C@@H](NC(=O)N1CCN(CCNC(=O)c2c(F)cc(O)c(O)c2Cl)C(=O)C1=O)C(=O)N[C@H]1Cc2ccc(F)c(C(=O)O)c2OB1O [Example 80, (R)-3-((R)-2-(4-(2-(2-chloro-6-fluoro-3,4-dihydroxybenzamido)ethyl)-2,3-dioxopiperazine-1-carboxamido)-3,3-dimethylbutanamido)-7-fluoro-2-hydroxy-3,4-dihydro-2H-benzo[e][1,2]oxaborinine-8-carboxylic acid]",8 to 16,2 to 4,0.5 to 1,32 to 64,2 to 4,2 to 4,8 to 16,2 to 4,2 to 4,0.25,8 to 16,0.25,0.5 to 1
"CS(=O)(=O)N1CCN(C(=O)NC(C(=O)N[C@H]2Cc3ccc(F)c(C(=O)O)c3OB2O)c2ccc(O)c(O)c2Cl)C1=O (stereo partly drawn) [Example 23, (3R)-3-(2-(2-chloro-3,4-dihydroxyphenyl)-2-(3-(methylsulfonyl)-2-oxoimidazolidine-1-carboxamido)acetamido)-7-fluoro-2-hydroxy-3,4-dihydro-2H-benzo[e][1,2]oxaborinine-8-carboxylic acid]",0.5 to 1,0.5 to 1,0.25,0.5 to 1,0.25,0.5 to 1,8 to 16,0.5 to 1,8 to 16,0.25,8 to 16,0.25,2 to 4
